The structures appear in SMILES notation.

14 compounds from patent publication US20250243171A1, “QUINAZOLINE COMPOUNDS FOR TREATMENT OF DISEASE” (Arthrosi Therapeutics, Inc., priority 2021, published 2025) can be followed below.

Common to all, as to assay: EC50 assay: Ba/F3 stable cell proliferation (CCK-8, 72 h)
Common to all, as to type: cell-based

Test [1] has as its target T1, Ba/F3 stable cells (Homo sapiens, UniProt P00533, DUP768-770, cells depend on it).
T1 construct: EC50 Ba/F3-EGFR D770-N771insSVD; other: Ba/F3-EGFR D770-N771insSVD cells, 72 h, CCK-8
As to conditions: Ba/F3-EGFR D770-N771insSVD cells. In outline:
(§1)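 Ba/F3 stable cells were seeded at 4,000 cells/90 μL/well in 96-well plates and held 2 h at 37° C. in 5% CO2, then given 10 μL of serially titrated compound (0.1% DMSO final). After 72 h at 37° C., CCK-8 reagent was added for 4 hours and absorbance read at 450 nm to derive EC50.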

The target in test [2] is T2, Ba/F3 stable cells (Homo sapiens, UniProt P00533, DUP767-769, cells depend on it).
T2 construct: EC50 Ba/F3-EGFR V769-D770insASV; other: Ba/F3-EGFR V769-D770insASV cells, 72 h, CCK-8
As to conditions: Ba/F3-EGFR V769-D770insASV cells. In outline: as §1

Test [3] concerns the target T3, Ba/F3 stable cells (Homo sapiens, UniProt P00533, DUP771-773, cells depend on it).
T3 construct: EC50 Ba/F3-EGFR H773-V774insNPH; other: Ba/F3-EGFR H773-V774insNPH cells, 72 h, CCK-8
As to conditions: Ba/F3-EGFR H773-V774insNPH cells. In outline:
as §1

Test [4] concerns the target T4, Ba/F3 stable cells (Homo sapiens, UniProt P00533, INS763FQEA, cells depend on it).
T4 construct: EC50 Ba/F3-EGFR A763-Y764insFQEA; other: Ba/F3-EGFR A763-Y764insFQEA cells, 72 h, CCK-8
Conditions: Ba/F3-EGFR A763-Y764insFQEA cells. The procedure, abridged:
as §1

Test [5] addresses T5, Ba/F3 stable cells (Homo sapiens, UniProt P00533, T790M/L858R, cells depend on it).
T5 construct: EC50 Ba/F3-EGFR L858R-T790M; other: Ba/F3-EGFR L858R-T790M cells, 72 h, CCK-8
As to conditions: Ba/F3-EGFR L858R-T790M cells. The procedure, abridged:
as §1

Test [6] concerns the target T6, Ba/F3 stable cells (Homo sapiens, UniProt P04626, DUP772-775, cells depend on it).
T6 construct: EC50 Ba/F3-HER2 A775-G776insYVMA; other: Ba/F3-HER2 A775-G776insYVMA cells, 72 h, CCK-8
Conditions: Ba/F3-HER2 A775-G776insYVMA cells. The procedure, abridged:
as §1

T4 sequence (P00533 with tags, fused parts or gaps INS763FQEA): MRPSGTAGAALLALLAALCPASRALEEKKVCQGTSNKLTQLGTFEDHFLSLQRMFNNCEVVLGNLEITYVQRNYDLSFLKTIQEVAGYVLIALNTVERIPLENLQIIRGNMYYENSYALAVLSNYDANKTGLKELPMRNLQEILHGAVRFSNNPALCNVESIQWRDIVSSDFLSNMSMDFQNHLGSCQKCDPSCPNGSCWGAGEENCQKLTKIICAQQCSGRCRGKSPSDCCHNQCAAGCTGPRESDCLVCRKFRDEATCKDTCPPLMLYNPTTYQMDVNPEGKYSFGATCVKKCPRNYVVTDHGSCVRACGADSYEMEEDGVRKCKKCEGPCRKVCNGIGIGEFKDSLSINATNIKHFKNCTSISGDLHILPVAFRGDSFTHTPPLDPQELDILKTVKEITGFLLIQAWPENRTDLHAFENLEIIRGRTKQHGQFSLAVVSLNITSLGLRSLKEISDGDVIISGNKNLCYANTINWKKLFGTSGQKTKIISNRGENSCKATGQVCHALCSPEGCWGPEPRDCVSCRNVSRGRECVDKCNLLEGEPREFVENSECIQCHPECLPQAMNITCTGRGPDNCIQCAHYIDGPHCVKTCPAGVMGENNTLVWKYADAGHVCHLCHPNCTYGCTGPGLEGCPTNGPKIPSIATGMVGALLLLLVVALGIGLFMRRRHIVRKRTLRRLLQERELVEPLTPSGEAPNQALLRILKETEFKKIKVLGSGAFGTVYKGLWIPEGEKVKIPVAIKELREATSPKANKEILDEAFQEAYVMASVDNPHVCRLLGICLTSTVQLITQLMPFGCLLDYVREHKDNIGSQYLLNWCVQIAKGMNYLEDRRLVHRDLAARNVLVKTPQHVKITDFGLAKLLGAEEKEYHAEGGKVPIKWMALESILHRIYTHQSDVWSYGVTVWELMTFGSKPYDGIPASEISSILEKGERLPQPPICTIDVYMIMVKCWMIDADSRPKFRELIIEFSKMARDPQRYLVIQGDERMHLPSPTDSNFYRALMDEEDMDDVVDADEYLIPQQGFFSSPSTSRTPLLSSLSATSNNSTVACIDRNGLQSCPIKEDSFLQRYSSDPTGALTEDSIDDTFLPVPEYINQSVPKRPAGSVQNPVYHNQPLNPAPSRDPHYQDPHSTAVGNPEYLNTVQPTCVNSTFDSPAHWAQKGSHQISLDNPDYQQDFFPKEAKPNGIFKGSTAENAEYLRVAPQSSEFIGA
T5 sequence (P00533 whole entry T790M/L858R): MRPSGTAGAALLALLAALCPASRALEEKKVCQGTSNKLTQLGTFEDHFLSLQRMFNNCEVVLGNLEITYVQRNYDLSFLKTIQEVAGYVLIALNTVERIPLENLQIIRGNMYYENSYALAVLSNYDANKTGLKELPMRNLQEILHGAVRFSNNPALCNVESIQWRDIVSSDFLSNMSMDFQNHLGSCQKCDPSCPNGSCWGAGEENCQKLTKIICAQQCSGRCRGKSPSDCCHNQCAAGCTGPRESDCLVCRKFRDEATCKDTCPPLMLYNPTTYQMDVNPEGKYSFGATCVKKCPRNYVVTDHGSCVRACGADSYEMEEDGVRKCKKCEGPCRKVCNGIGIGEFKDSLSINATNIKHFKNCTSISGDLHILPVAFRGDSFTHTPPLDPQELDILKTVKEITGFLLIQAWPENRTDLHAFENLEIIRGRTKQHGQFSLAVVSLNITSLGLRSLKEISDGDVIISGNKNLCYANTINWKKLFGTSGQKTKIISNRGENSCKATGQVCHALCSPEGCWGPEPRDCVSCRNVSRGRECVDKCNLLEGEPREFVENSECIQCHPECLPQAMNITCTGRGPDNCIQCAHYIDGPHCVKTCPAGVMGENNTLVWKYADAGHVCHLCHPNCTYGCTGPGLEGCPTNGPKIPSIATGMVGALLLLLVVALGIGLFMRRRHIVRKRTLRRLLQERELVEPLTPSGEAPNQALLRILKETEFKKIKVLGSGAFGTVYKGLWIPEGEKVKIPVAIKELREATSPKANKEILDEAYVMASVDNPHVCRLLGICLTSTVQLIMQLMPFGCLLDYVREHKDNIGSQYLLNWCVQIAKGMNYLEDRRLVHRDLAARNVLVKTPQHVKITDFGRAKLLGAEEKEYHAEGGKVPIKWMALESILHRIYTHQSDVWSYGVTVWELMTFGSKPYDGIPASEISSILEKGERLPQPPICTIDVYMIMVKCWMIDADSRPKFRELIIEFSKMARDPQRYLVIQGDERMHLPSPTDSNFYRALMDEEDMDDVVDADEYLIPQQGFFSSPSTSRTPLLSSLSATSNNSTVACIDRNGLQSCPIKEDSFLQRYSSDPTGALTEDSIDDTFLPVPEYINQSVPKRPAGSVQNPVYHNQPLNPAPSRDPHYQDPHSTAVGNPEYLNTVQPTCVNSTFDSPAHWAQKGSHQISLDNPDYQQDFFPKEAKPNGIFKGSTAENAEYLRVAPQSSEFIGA
T2 sequence (P00533 with tags, fused parts or gaps DUP767-769): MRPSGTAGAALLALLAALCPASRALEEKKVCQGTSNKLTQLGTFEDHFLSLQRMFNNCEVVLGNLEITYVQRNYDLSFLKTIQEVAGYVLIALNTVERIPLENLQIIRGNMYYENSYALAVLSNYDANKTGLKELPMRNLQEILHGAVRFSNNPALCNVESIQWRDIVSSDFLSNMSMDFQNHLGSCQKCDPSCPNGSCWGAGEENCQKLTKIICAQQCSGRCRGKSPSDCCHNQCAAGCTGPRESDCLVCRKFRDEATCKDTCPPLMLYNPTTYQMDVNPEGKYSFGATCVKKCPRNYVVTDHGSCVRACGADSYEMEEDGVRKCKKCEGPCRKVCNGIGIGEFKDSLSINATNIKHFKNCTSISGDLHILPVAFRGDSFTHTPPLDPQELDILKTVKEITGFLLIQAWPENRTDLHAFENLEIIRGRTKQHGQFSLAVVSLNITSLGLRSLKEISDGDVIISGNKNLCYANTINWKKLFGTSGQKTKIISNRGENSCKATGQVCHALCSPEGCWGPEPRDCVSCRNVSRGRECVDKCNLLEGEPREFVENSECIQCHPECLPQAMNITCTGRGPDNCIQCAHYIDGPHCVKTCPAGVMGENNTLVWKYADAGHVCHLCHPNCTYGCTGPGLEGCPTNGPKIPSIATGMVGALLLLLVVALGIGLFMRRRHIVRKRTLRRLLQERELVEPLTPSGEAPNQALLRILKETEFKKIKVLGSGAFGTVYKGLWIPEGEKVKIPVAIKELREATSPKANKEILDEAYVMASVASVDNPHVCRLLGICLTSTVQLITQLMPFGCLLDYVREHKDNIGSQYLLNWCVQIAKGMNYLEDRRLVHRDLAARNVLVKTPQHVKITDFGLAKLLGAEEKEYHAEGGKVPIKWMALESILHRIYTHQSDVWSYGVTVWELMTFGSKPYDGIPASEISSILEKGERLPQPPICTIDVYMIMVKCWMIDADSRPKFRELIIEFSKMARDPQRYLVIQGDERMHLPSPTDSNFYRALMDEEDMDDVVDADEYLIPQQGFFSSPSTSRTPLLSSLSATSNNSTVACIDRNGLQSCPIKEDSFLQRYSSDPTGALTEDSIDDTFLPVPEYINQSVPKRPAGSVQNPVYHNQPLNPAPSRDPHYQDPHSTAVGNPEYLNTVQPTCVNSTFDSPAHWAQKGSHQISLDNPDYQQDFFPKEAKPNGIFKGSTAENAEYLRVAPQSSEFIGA
T1 sequence (P00533 with tags, fused parts or gaps DUP768-770): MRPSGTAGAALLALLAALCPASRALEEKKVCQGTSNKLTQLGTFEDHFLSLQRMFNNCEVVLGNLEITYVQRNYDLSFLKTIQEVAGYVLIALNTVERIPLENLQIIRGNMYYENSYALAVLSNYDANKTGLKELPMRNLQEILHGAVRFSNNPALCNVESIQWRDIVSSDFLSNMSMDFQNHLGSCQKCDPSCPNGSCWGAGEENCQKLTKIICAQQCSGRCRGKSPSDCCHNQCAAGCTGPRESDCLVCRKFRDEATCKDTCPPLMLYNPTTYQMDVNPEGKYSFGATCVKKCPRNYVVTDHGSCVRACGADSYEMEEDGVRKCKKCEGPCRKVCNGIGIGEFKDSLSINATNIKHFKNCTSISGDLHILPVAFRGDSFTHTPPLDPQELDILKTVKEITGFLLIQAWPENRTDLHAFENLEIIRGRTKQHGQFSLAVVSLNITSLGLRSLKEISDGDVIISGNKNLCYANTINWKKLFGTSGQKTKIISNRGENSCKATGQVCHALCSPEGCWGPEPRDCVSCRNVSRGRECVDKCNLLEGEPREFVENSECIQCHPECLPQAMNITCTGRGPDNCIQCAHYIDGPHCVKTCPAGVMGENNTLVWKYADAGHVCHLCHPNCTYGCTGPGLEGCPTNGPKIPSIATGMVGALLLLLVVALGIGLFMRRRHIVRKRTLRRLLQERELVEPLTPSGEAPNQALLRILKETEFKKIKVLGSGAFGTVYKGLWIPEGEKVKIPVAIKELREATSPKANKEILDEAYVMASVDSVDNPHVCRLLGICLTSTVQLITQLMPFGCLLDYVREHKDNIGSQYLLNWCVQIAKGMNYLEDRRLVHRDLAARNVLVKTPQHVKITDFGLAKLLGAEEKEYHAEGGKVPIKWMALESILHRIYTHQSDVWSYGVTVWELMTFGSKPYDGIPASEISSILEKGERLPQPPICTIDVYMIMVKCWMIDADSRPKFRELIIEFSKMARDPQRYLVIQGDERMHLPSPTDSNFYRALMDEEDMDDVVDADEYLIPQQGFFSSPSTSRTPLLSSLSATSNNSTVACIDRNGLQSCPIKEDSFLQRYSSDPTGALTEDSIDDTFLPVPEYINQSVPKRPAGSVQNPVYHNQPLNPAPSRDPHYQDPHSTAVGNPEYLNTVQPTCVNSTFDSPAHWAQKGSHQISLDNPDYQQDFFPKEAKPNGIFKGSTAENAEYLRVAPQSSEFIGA

In the case of `C=CC(=O)N[C@H]1C[C@@H](Oc2cc3c(C(=O)N[C@H](C)c4ccc(F)cc4)ncnc3cc2OC)C1` [Compound 97, 6-((1s,3S)-3-acrylamidocyclobutoxy)-N-((R)-1-(4-fluorophenyl)ethyl)-7-methoxyquinazoline-4-carboxamide], the half-maximal effective concentration (EC50) on Ba/F3 stable cells [1], at Ba/F3 stable cells [2], at Ba/F3 stable cells [3], on Ba/F3 stable cells [4], on Ba/F3 stable cells [5] and on Ba/F3 stable cells [6] was greater than 1 µM throughout.
In the case of `C=CC(=O)N1CCC(Oc2cc3c(NC(=O)c4ccc(F)cc4)ncnc3cc2OC)CC1` [Compound 98, N-(6-((1-acryloylpiperidin-4-yl)oxy)-7-methoxyquinazolin-4-yl)-4-fluorobenzamide], the EC50 at Ba/F3 stable cells [1] was greater than 1 µM; on Ba/F3 stable cells [2] it was greater than 1 µM; at Ba/F3 stable cells [3], greater than 1 µM; on Ba/F3 stable cells [4] it was 0.2 to 1 µM; on Ba/F3 stable cells [5], greater than 1 µM; on Ba/F3 stable cells [6], greater than 1 µM.
As to `C=CC(=O)N[C@H]1C[C@@H](Oc2cc3c(Nc4ccc(Cl)c(Cl)c4F)ncnc3cc2O[C@H]2CCOC2)C1` [Compound 99, N-((1R,3s)-3-((4-((3,4-dichloro-2-fluorophenyl)amino)-7-(((S)-tetrahydrofuran-3-yl)oxy)quinazolin-6-yl)oxy)cyclobutyl)acrylamide], the EC50 on Ba/F3 stable cells [1] was 0.2 to 1 µM; at Ba/F3 stable cells [2] it was no more than 0.2 µM; on Ba/F3 stable cells [3], no more than 0.2 µM; at Ba/F3 stable cells [4], no more than 0.2 µM; at Ba/F3 stable cells [5], no more than 0.2 µM; at Ba/F3 stable cells [6], no more than 0.2 µM.
In the case of `C=CC(=O)N[C@H]1C[C@@H](Oc2cc3c(Nc4ccc(Cl)c(Cl)c4F)ncnc3cc2OCCO)C1` [Compound 100, N-((1s,3s)-3-((4-((3,4-dichloro-2-fluorophenyl)amino)-7-(2-hydroxyethoxy)quinazolin-6-yl)oxy)cyclobutyl)acrylamide], the 50% effective concentration (EC50) at Ba/F3 stable cells [1] is 0.2 to 1 µM; on Ba/F3 stable cells [2], no more than 0.2 µM; at Ba/F3 stable cells [3] it was 0.2 to 1 µM; on Ba/F3 stable cells [4] it was no more than 0.2 µM; at Ba/F3 stable cells [5], 0.2 to 1 µM; on Ba/F3 stable cells [6], 0.2 to 1 µM.
For the compound `C=CC(=O)N[C@H]1C[C@@H](Oc2cc3c(Nc4ccc(Cl)c(Cl)c4F)ncnc3cc2OCCN(C)C)C1` [Compound 101, N-((1s,3s)-3-((4-((3,4-dichloro-2-fluorophenyl)amino)-7-(2-(dimethylamino)ethoxy)quinazolin-6-yl)oxy)cyclobutyl)acrylamide], the half-maximal effective concentration (EC50) at Ba/F3 stable cells [1] was greater than 1 µM; on Ba/F3 stable cells [2], 0.2 to 1 µM; on Ba/F3 stable cells [3], greater than 1 µM; on Ba/F3 stable cells [4], no more than 0.2 µM; on Ba/F3 stable cells [5], greater than 1 µM; on Ba/F3 stable cells [6] it was greater than 1 µM.
With `[2H]C([2H])([2H])Oc1cc2ncnc(Nc3ccc(Cl)c(Cl)c3F)c2cc1O[C@H]1C[C@@H](NC(=O)C=C)C1` [Compound 102, N-((1s,3s)-3-((4-((3,4-dichloro-2-fluorophenyl)amino)-7-(methoxy-d3)quinazolin-6-yl)oxy)cyclobutyl)acrylamide], the EC50 on Ba/F3 stable cells [1], on Ba/F3 stable cells [2], at Ba/F3 stable cells [3], on Ba/F3 stable cells [4], at Ba/F3 stable cells [5] and at Ba/F3 stable cells [6] was no more than 0.2 µM throughout.
For `C=CC(=O)N[C@H]1C[C@@H](Oc2cc3c(Nc4ccc(Cl)c(Cl)c4F)ncnc3cc2NC)C1` [Compound 103, N-((1s,3s)-3-((4-((3,4-dichloro-2-fluorophenyl)amino)-7-(methylamino)quinazolin-6-yl)oxy)cyclobutyl)acrylamide], the EC50 at Ba/F3 stable cells [1], on Ba/F3 stable cells [2], on Ba/F3 stable cells [3], on Ba/F3 stable cells [4], on Ba/F3 stable cells [5] and on Ba/F3 stable cells [6] was no more than 0.2 µM in each case.
For `C=CC(=O)N[C@H]1C[C@@H](Oc2cc3c(Nc4ccc(Cl)c(Cl)c4F)ncnc3cc2OC2COC2)C1` [Compound 104, N-((1s,3s)-3-((4-((3,4-dichloro-2-fluorophenyl)amino)-7-(oxetan-3-yloxy)quinazolin-6-yl)oxy)cyclobutyl)acrylamide], the 50% effective concentration (EC50) at Ba/F3 stable cells [1] is 0.2 to 1 µM; at Ba/F3 stable cells [2], no more than 0.2 µM; on Ba/F3 stable cells [3], no more than 0.2 µM; on Ba/F3 stable cells [4], no more than 0.2 µM; on Ba/F3 stable cells [5], 0.2 to 1 µM; on Ba/F3 stable cells [6], 0.2 to 1 µM.
Regarding `C=CC(=O)N[C@H]1C[C@@H](Oc2cc3c(Nc4ccc(Cl)c(Cl)c4F)ncnc3cc2OCC)C1` [Compound 105, N-((1s,3s)-3-((4-((3,4-dichloro-2-fluorophenyl)amino)-7-ethoxyquinazolin-6-yl)oxy)cyclobutyl)acrylamide], the concentration for a half-maximal effect (EC50) on Ba/F3 stable cells [1], on Ba/F3 stable cells [2], on Ba/F3 stable cells [3], at Ba/F3 stable cells [4], on Ba/F3 stable cells [5] and on Ba/F3 stable cells [6] was no more than 0.2 µM in each case.
As to `C=CC(=O)N1CCC(Oc2cc3c(NCc4cccc(Cl)c4)ncnc3cc2OC)CC1` [Compound 106, 1-(4-((4-((3-chlorobenzyl)amino)-7-methoxyquinazolin-6-yl)oxy)piperidin-1-yl)prop-2-en-1-one], the EC50 was no more than 0.2 µM at Ba/F3 stable cells [1]; no more than 0.2 µM at Ba/F3 stable cells [2]; no more than 0.2 µM at Ba/F3 stable cells [3]; no more than 0.2 µM on Ba/F3 stable cells [4]; 0.2 to 1 µM on Ba/F3 stable cells [5]; no more than 0.2 µM on Ba/F3 stable cells [6].
For the compound `C=CC(=O)N1CCC(Oc2cc3c(OCc4cccc(Cl)c4)ncnc3cc2OC)CC1` [Compound 107, 1-(4-((4-((3-chlorobenzyl)oxy)-7-methoxyquinazolin-6-yl)oxy)piperidin-1-yl)prop-2-en-1-one], the concentration giving a half-maximal response (EC50) on Ba/F3 stable cells [1] was 0.2 to 1 µM; at Ba/F3 stable cells [2], 0.2 to 1 µM; at Ba/F3 stable cells [3], 0.2 to 1 µM; at Ba/F3 stable cells [4], no more than 0.2 µM; at Ba/F3 stable cells [5], 0.2 to 1 µM; on Ba/F3 stable cells [6], greater than 1 µM.
For `C=CC(=O)N1CCC(Oc2cc3c(NCc4ccc(Cl)cc4)ncnc3cc2OC)CC1` [Compound 108, 1-(4-((4-((4-chlorobenzyl)amino)-7-methoxyquinazolin-6-yl)oxy)piperidin-1-yl)prop-2-en-1-one], the half-maximal effective concentration (EC50) at Ba/F3 stable cells [1] was greater than 1 µM; at Ba/F3 stable cells [2] it was greater than 1 µM; on Ba/F3 stable cells [3], 0.2 to 1 µM; on Ba/F3 stable cells [4], no more than 0.2 µM; on Ba/F3 stable cells [5], greater than 1 µM; on Ba/F3 stable cells [6] it was greater than 1 µM.
In the case of `C=CC(=O)N1CCC(Oc2cc3c(NCc4ccc(Cl)cc4Cl)ncnc3cc2OC)CC1` [Compound 109, 1-(4-((4-((2,4-dichlorobenzyl)amino)-7-methoxyquinazolin-6-yl)oxy)piperidin-1-yl)prop-2-en-1-one], the EC50 at Ba/F3 stable cells [1] is greater than 1 µM; on Ba/F3 stable cells [2] it was greater than 1 µM; on Ba/F3 stable cells [3], greater than 1 µM; on Ba/F3 stable cells [4], 0.2 to 1 µM; on Ba/F3 stable cells [5], greater than 1 µM; at Ba/F3 stable cells [6], greater than 1 µM.
In the case of `C=CC(=O)N1CCC(Oc2cc3c(NCc4ccccc4Cl)ncnc3cc2OC)CC1` [Compound 110, 1-(4-((4-((2-chlorobenzyl)amino)-7-methoxyquinazolin-6-yl)oxy)piperidin-1-yl)prop-2-en-1-one], the EC50 was 0.2 to 1 µM at Ba/F3 stable cells [1]; no more than 0.2 µM at Ba/F3 stable cells [2]; no more than 0.2 µM on Ba/F3 stable cells [3]; no more than 0.2 µM at Ba/F3 stable cells [4]; 0.2 to 1 µM on Ba/F3 stable cells [5]; no more than 0.2 µM at Ba/F3 stable cells [6].
